Test results published in patent US11999727B2 (Tango Therapeutics, Inc., priority 2020, dated 2024).

Legend:
PRMT5 [1] = target: T1, PRMT5 (Homo sapiens, UniProt O14744); assay: PRMT5 biochemical IC50 assay with SAM as cofactor; conditions: PRMT5, SAM as cofactor; read-out: SAM IC50
T1 construct: purchased Viva (custom protein)

PRMT5 [2] = target: T1, PRMT5; assay: PRMT5 biochemical IC50 assay with no cofactor; conditions: PRMT5, no cofactor
Excerpt: Table 1 indicates IC50 values (μM) against PRMT5 for exemplary compounds in the presence of SAM as cofactor, with no cofactor, and with MTA as cofactor, respectively (columns 4-6). […] Ki values can be calculated from the IC50 values as described in the Examples section. As detailed in the Examples section, for the assay performed in the presence of SAM, IC50=Ki×1.5 (Ki=IC50/1.5).

PRMT5 [3] = target: T1, PRMT5; assay: PRMT5 biochemical IC50 assay with MTA as cofactor; conditions: PRMT5, MTA as cofactor; read-out: MTA IC50
[4] = system: HAP1 MTAP-intact cell line; assay: SDMA in-cell western assay, HAP1 MTAP-intact; assay type: cell-based; conditions: Homo sapiens, HAP1, SDMA in-cell western, HAP1 MTAP-intact; read-out: MTAP HAP1 intact IC50
Summary of the method: (§1)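 Isogenic HAP1 pair: the MTAP-intact line expresses endogenous MTAP, and the deleted line is MTAP-null. Symmetric dimethylarginine was detected by in-cell western and IC50 values derived for each line.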

[5] = system: HAP1 MTAP-deleted cell line; assay: SDMA in-cell western assay, HAP1 MTAP-deleted; assay type: cell-based; conditions: for IC50: Homo sapiens, HAP1, SDMA in-cell western, HAP1 MTAP-deleted; for MTAP intact/deleted ratio: SDMA in-cell western
Summary of the method: as §1

[6] = system: HAP1 MTAP-deleted cell line; assay: Viability assay, MTAP-deleted cell line; assay type: cell-based; conditions: Homo sapiens, read-out: HAP1 MTAP deleted viability
Excerpt: Table 1 additionally indicates IC50 values in a viability assay for the MTAP-deleted cell line (column 10), indicating the effect of treatment with compound on cell survival.

[7] = read-out: HAP1 MTAP deleted IC50
[8] = IC50 ratio HAP1 MTAP-intact / HAP1 MTAP-deleted
[9] = HAP1, viability assay, MTAP-deleted cell line
[10] = HAP1, viability assay, HAP1 MTAP-deleted
[11] = read-out: No Cofactor/ rel IC50
[12] = read-out: HAP 1 MTAP deleted IC50
[13] = IC50 ratio HAP1 MTAP-intact vs HAP1 MTAP-deleted
[14] = HAP1, viability IC50, MTAP-deleted cell line

T1 sequence (O14744 whole entry): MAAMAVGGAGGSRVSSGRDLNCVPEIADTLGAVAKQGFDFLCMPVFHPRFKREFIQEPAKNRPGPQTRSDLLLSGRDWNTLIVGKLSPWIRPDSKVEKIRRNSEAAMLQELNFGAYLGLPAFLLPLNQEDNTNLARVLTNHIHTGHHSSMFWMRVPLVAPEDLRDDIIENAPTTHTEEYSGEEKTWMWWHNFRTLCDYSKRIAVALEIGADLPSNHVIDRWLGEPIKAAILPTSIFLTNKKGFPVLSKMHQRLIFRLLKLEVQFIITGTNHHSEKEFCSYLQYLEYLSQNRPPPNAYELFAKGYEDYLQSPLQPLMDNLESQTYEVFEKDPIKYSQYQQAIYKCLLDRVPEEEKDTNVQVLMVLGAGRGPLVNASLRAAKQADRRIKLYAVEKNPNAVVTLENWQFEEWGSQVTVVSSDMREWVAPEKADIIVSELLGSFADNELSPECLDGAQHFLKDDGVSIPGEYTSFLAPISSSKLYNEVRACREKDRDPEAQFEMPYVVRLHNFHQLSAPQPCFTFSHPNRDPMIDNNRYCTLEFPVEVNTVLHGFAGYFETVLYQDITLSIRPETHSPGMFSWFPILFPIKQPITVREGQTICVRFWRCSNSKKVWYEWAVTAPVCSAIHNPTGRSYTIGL
T1 sequence (Q9BQA1 whole entry partner): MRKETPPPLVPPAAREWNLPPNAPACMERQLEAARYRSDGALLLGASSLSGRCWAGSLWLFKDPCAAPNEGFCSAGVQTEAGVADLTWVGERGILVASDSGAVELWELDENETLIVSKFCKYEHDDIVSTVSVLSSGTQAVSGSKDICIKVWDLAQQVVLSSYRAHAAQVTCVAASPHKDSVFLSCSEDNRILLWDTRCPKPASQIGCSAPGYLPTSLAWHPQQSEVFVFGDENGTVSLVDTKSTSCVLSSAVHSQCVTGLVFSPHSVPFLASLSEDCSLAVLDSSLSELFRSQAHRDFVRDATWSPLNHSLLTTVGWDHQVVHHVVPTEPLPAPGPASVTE

IC50 (PRMT5 [1]) [nM]	IC50 (PRMT5 [2]; read-out: No Cofactor/rel IC50) [nM]	IC50 (PRMT5 [3]) [nM]	IC50 [4] [nM]	IC50 [5, 7] [nM]	IC50 (PRMT5 [2]; [11]) [nM]	IC50 [5, 12] [nM]	SMILES	MTAP intact/deleted ratio [5, 8]	IC50 [6, 9] [nM]	IC50 [6, 10] [nM]	MTAP intact/deleted ratio [5, 13]	IC50 ([6]; HAP1, viability, HAP1 MTAP-deleted cell line) [nM]	IC50 [6, 14] [nM]
> 500	> 500	50 to 500	> 1000	100 to 1000			Cc1ccc([C@@H]2CC[C@H](C)CN2C(=O)C(=O)Nc2cncc(C(N)=O)c2)nc1 (racemic) [Compound 880, 5-[[2-[(2R,5R)-5-Methyl-2-(5-methyl-2-pyridyl)-1-piperidyl]-2-oxo-acetyl]amino]pyridine-3-carboxamide]	A (an IC50 ratio greater than or equal to 10 fold)		> 10000			
50 to 500		50 to 500	> 1000		50 to 500	> 1000	Cc1cc(C)n(-c2ccc([C@@H]3CC[C@@H](C)CN3C(=O)C(=O)Nc3cncc(C(N)=O)c3)cc2)n1 (racemic) [Compound 157, rac-5-{2-[(2R,5S)-2-[4-(3,5-Dimethyl-1H-pyrazol-1-yl)phenyl]-5-methylpiperidin-1-yl]-2-oxoacetamido}pyridine-3-carboxamide]	B (an IC50 ratio greater than or equal to 3 fold but lower than 10 fold)	> 10000				
> 500		50 to 500	> 1000		> 500	> 1000	Cc1ccc([C@@H]2CC[C@@H](C)CN2C(=O)C(=O)Nc2cncc(C)c2)cc1 (single isomer, unassigned) [Compound 16]	B (an IC50 ratio greater than or equal to 3 fold but lower than 10 fold)	> 10000				
> 500	> 500	> 500	> 1000	> 1000			COc1ncc(NC(=O)C(=O)N2C[C@@H](C)CC[C@@H]2c2cc(F)c(F)c(F)c2)cc1C(N)=O (single isomer, unassigned) [Compound 739]	B (an IC50 ratio greater than or equal to 3 fold but lower than 10 fold)		> 10000			
50 to 500	< 50	< 50	100 to 1000	< 100			Cc1nc2cc([C@@H]3CC[C@H](C)CN3C(=O)C(=O)Nc3cnc(N)c(C)c3)ccc2o1 (single isomer, unassigned) [Compound 1170]		< 1000		A (an IC50 ratio greater than or equal to 10 fold)		
< 50	< 50	< 50	< 100	< 100			Cc1cc(NC(=O)C(=O)N2C[C@@H](C)CC[C@@H]2c2ccc3sc(C4CCN(C5CC5)CC4)nc3c2)cnc1N [Compound 1181, N-(6-amino-5-methylpyridin-3-yl)-2-((2R,5S)-2-(2-(1-cyclopropylpiperidin-4-yl)benzo[d]thiazol-5-yl)-5-methylpiperidin-1-yl)-2-oxoacetamide]		< 1000		B (an IC50 ratio greater than or equal to 3 fold but lower than 10 fold)		
50 to 500	< 50	< 50	100 to 1000	< 100			Cc1cc(NC(=O)C(=O)N2C[C@@H](C)CC[C@@H]2c2cccc(Cl)c2)cnc1N (single isomer, unassigned) [Compound 284]	A (an IC50 ratio greater than or equal to 10 fold)	< 1000				
> 500	> 500	> 500	> 1000	> 1000			Cc1cc(NC(=O)C(=O)N2C[C@H](C)CC[C@H]2c2cccc(Cl)c2)cnc1N (single isomer, unassigned) [Compound 283]	B (an IC50 ratio greater than or equal to 3 fold but lower than 10 fold)	> 10000				
50 to 500		< 50	< 100		< 50	< 100	Cc1cc(NC(=O)C(=O)N2C[C@@H](C)CC[C@@H]2c2ccc3sc(C4COC4)nc3c2)cnc1N [Compound 1266, N-(6-amino-5-methylpyridin-3-yl)-2-((2R,5S)-5-methyl-2-(2-(oxetan-3-yl)benzo[d]thiazol-5-yl)piperidin-1-yl)-2-oxoacetamide]	A (an IC50 ratio greater than or equal to 10 fold)				< 1000	
50 to 500	50 to 500	< 50	> 1000	100 to 1000			CCc1cc(NC(=O)C(=O)N2C[C@H](C)CC[C@H]2c2ccc(-c3nccs3)cc2)cnc1N (single isomer, unassigned) [Compound 813]	A (an IC50 ratio greater than or equal to 10 fold)		< 1000			
50 to 500	50 to 500	< 50	> 1000			100 to 1000	C[C@H]1CN(C(=O)C(=O)Nc2cncc(C(N)=O)c2)[C@H](c2ccc(F)c(F)c2)CC1(F)F (single isomer, unassigned) [Compound 683]	A (an IC50 ratio greater than or equal to 10 fold)					1000 to 10000
> 500	> 500	> 500	> 1000	> 1000			C[C@@H]1CC[C@@H](c2ccc(C(F)(F)F)cc2)N(C(=O)C(=O)Nc2cncc(C(N)=O)c2)C1 (single isomer, unassigned) [Compound 508]	C (an IC50 ratio of less than 3 fold)	> 10000				
50 to 500	< 50	< 50	> 1000	100 to 1000			Cc1cc(NC(=O)C(=O)N2C[C@H](C)CC[C@H]2c2ccc(NS(C)(=O)=O)cc2)cnc1N (single isomer, unassigned) [Compound 499]	A (an IC50 ratio greater than or equal to 10 fold)	< 1000				
50 to 500	50 to 500	< 50	> 1000	< 100			Cc1c(NC(=O)C(=O)N2C[C@@H](C)CC[C@@H]2c2ccc(O)cc2)cnc(N)c1C (single isomer, unassigned) [Compound 383]	A (an IC50 ratio greater than or equal to 10 fold)	< 1000				
50 to 500	50 to 500	50 to 500	> 1000			> 1000	C[C@H]1CC[C@H](c2cnc3[nH]ncc3c2)N(C(=O)C(=O)Nc2cncc(C(N)=O)c2)C1 (single isomer, unassigned) [Compound 574]	B (an IC50 ratio greater than or equal to 3 fold but lower than 10 fold)					> 10000
50 to 500		50 to 500	> 1000		50 to 500	< 100	Cc1cc(C)n(-c2cccc([C@@H]3CC[C@@H](C)CN3C(=O)C(=O)Nc3cncc(C(N)=O)c3)c2)n1 (racemic) [Compound 153, rac-5-{2-[(2R,5S)-2-[3-(3,5-Dimethyl-1H-pyrazol-1-yl)phenyl]-5-methylpiperidin-1-yl]-2-oxoacetamido}pyridine-3-carboxamide]	A (an IC50 ratio greater than or equal to 10 fold)	1000 to 10000				
> 500	> 500	> 500	> 1000			> 1000	Cc1cc(NC(=O)C(=O)N2C[C@@H](C)CC[C@@H]2[C@@H]2CCC[C@@H](O)C2)cnc1N (single isomer, unassigned) [Compound 568]	C (an IC50 ratio of less than 3 fold)					> 10000
50 to 500	50 to 500	< 50	> 1000	< 100			C[C@@H]1CC[C@@H](c2ccc3ccoc3c2)N(C(=O)C(=O)Nc2cncc(C(N)=O)c2)C1 (racemic) [Compound 241, rac-5-{2-[(2R,5S)-2-(1-Benzofuran-6-yl)-5-methylpiperidin-1-yl]-2-oxoacetamido}pyridine-3-carboxamide]	A (an IC50 ratio greater than or equal to 10 fold)	1000 to 10000				

SMILES	IC50 (PRMT5 [1]) [nM]	IC50 (PRMT5 [2]; read-out: No Cofactor/rel IC50) [nM]	IC50 (PRMT5 [3]) [nM]	IC50 [4] [nM]	IC50 [5, 7] [nM]	IC50 (PRMT5 [2]; [11]) [nM]	IC50 [5, 12] [nM]	MTAP intact/deleted ratio [5, 8]	IC50 [6, 9] [nM]	IC50 [6, 10] [nM]	MTAP intact/deleted ratio [5, 13]	IC50 ([6]; HAP1, viability, HAP1 MTAP-deleted cell line) [nM]	IC50 [6, 14] [nM]
C[C@@H]1CC[C@@H](c2ccc(F)cc2)N(C(=O)C(=O)Nc2cncc(C(N)=O)c2)C1 [Compound 302, 5-[[2-[(2S,5R)-2-(4-fluorophenyl)-5-methyl-1-piperidyl]-2-oxo-acetyl]amino]pyridine-3-carboxamide]	> 500	> 500	> 500	> 1000	> 1000			C (an IC50 ratio of less than 3 fold)	> 10000				
